Results from patent US7838542B2, “Bicyclic compositions and methods for modulating a kinase cascade” (Kinex Pharmaceuticals, LLC, priority 2006, dated 2010).
pIC50: −log10 of the molar value.

Tests used:
ZAP-70(h) = ZAP-70(h) (Homo sapiens, UniProt P43403); assay: Isolated kinases, percent activity relative to control (Table XV), ZAP-70; format: biochemical; conditions: @ 10 μM
Description: (§1) Table XV illustrates percent activity of isolated kinases in the presence of the AstraZeneca ATP-competitive inhibitor (KX-328, AZ-28) or KX2-391 relative to control (untreated) isolated kinases.

[1] = system: PDGF receptor tyrosine kinase; assay: Isolated kinase assay, PDGF receptor tyrosine kinase; format: biochemical; conditions: @ 10 μM
Description: as §1

Src-Y416 = assay: Intracellular phosphorylation: Src-Y416 autophosphorylation; format: cell-based; conditions: HT29 and c-Src527F/NIH-3T3 cells; 0.2×, 1×, 5×, 25× GI50
Protocol: (§2) HT29 (colon cancer) and c-Src527F/NIH-3T3 (Src transformed) cell lines were treated with KX2-391 or with AstraZeneca's ATP competitive Src inhibitor AZ28. AZ28 serves as a positive comparator to show what a validated Src inhibitor should do in these assays. After treatment with compound, cells were lysed, subjected to PAGE and probed with a battery of antibodies. […] In addition, off-target protein phosphorylation was also investigated. Further, induction of apoptosis was evaluated via Caspase 3 cleavage. Multiple doses of each compound were tested because the trends in response to increasing drug concentration are the most reliable indicator of activity.
(§3) The same range of multiples of the GI50 for AZ28 in these two cell lines was run as a comparison.

IGF-1R(h) = IGF-1R(h) (Homo sapiens, UniProt P08069); assay: Isolated kinases, percent activity relative to control (Table XV), IGF-1R; format: biochemical; conditions: @ 10 μM
Description: as §1

Abl = Abl (Homo sapiens, UniProt P00519); assay: Isolated kinase assay, Abl; format: biochemical
Description: as §1

Lck = Lck (Homo sapiens, UniProt P06239); assay: Isolated kinase assay, Lck; format: biochemical
Description: as §1

CHK1(h) = CHK1(h) (Homo sapiens, UniProt O14757); assay: Isolated kinases, percent activity relative to control (Table XV), CHK1; format: biochemical; conditions: @ 10 μM
Description: as §1

Paxillin Y-31 = assay: Intracellular phosphorylation: Paxillin Y-31; format: cell-based; conditions: c-Src/NIH-3T3 cells
Protocol: as §2, §3
Note: paxillin Y-31 was not detected in HT29 cells with or without added drug.

EGFRTK = EGFRTK (Homo sapiens, UniProt P00533); assay: Isolated kinase assay, EGFRTK; format: biochemical
Description: as §1

Shc Y239/240 = assay: Intracellular phosphorylation: Shc Y239/240; format: cell-based; conditions: c-Src/NIH-3T3 and HT-29 cells
Protocol: as §2, §3

IR(h) = IR(h) (Homo sapiens, UniProt P06213); assay: Isolated kinases, percent activity relative to control (Table XV), IR; format: biochemical; conditions: @ 10 μM
Description: as §1

isolated kinases = assay: Isolated kinases panel, percent activity relative to control (Table XV); format: biochemical
Description: as §1

PI3 kinase = assay: Isolated kinases, percent activity relative to control (Table XV), PI3 kinase; format: biochemical; conditions: @ 10 μM
Description: as §1

[2] = system: c-Src/NIH-3T3 engineered cell line; assay: Src-driven cell growth, c-Src/NIH-3T3; format: cell-based
Lyn = Lyn (Homo sapiens, UniProt P07948); assay: Isolated kinase assay, Lyn; format: biochemical
Description: as §1

FAK Y397 = FAK Y397 autophosphorylation; format: cell-based; conditions: c-Src527F/NIH3T3 cells
Protocol: as §2
FAK Y397 is mainly a FAK autophosphorylation site and only a poor Src transphorylation site.

Src = Src (Homo sapiens, UniProt P12931); assay: Isolated kinase assay and titration, Src; format: biochemical; conditions: titration data
Description: as §1

Caspase-3 = assay: Induction of apoptosis via Caspase 3 cleavage; format: cell-based; conditions: HT29 and c-Src527F/NIH-3T3 cells
Protocol: as §2
Cleavage of Caspase-3 is a good measure of induction of apoptosis.

total phosphotyrosine = assay: Total phosphotyrosine levels; format: cell-based; conditions: HT29 and c-Src527F/NIH-3T3 cells
Protocol: as §2

Pyk2(h) = Pyk2(h) (Homo sapiens, UniProt Q14289); assay: Isolated kinases, percent activity relative to control (Table XV), Pyk2; format: biochemical; conditions: @ 10 μM
Description: as §1

[3] = system: PDGF receptor tyrosine kinase Y572/574; assay: PDGF receptor autophosphorylation Y572/574; format: cell-based; conditions: c-Src/NIH-3T3 cells
Protocol: as §2
PDGF receptor tyrosine kinase autophosphorylates on Y572/574. This is thought not to be a direct Src substrate in cells. […] PDGF receptor tyrosine kinase Y572/574 was not detected in HT29 cells with no drug added (as well as with drug added).

FGFR2(h) = FGFR2(h) (Homo sapiens, UniProt P21802); assay: Isolated kinases, percent activity relative to control (Table XV), FGFR2; format: biochemical; conditions: @ 10 μM
Description: as §1

PKCα(h) = PKCα(h) (Homo sapiens, UniProt P17252); assay: Isolated kinases, percent activity relative to control (Table XV), PKCα; format: biochemical; conditions: @ 10 μM
Description: as §1

EGFR tyrosine kinase = EGFR tyrosine kinase autophosphorylation; format: cell-based; conditions: c-Src/NIH-3T3 and HT-29 cells
Protocol: as §2
This site is not a direct Src phosphorylation site.

FAK Tyr 925 = assay: Intracellular phosphorylation: FAK Tyr 925; format: cell-based; conditions: c-Src/NIH-3T3 and HT-29 cells
Protocol: as §2, §3

[4] = system: NCI human colon cancer cell line HT29; assay: Cell growth, HT29; format: cell-based
Fyn = Fyn (Homo sapiens, UniProt P06241); assay: Isolated kinase assay, Fyn; format: biochemical
Description: as §1

MAPK2(h) = MAPK2(h) (Homo sapiens, UniProt P28482); assay: Isolated kinases, percent activity relative to control (Table XV), MAPK2; format: biochemical; conditions: @ 10 μM
Description: as §1

Yes = Yes (Homo sapiens, UniProt P07947); assay: Isolated kinase assay, Yes; format: biochemical
Description: as §1

Chain of Lyn (P07948 whole entry): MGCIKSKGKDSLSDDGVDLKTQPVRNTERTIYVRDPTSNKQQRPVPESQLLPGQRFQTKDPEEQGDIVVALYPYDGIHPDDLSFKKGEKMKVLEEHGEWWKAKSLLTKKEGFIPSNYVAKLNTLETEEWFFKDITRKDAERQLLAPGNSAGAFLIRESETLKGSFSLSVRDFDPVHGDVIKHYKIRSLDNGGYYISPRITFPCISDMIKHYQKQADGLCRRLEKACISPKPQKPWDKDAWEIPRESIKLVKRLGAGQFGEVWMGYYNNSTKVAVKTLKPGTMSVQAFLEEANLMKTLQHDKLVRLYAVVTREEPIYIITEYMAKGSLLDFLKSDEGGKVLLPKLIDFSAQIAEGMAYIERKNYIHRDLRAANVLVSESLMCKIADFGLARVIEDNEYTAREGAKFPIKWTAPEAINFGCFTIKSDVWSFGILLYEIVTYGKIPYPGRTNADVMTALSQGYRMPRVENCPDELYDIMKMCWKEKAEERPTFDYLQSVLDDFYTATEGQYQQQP
Chain of Lck (P06239 whole entry): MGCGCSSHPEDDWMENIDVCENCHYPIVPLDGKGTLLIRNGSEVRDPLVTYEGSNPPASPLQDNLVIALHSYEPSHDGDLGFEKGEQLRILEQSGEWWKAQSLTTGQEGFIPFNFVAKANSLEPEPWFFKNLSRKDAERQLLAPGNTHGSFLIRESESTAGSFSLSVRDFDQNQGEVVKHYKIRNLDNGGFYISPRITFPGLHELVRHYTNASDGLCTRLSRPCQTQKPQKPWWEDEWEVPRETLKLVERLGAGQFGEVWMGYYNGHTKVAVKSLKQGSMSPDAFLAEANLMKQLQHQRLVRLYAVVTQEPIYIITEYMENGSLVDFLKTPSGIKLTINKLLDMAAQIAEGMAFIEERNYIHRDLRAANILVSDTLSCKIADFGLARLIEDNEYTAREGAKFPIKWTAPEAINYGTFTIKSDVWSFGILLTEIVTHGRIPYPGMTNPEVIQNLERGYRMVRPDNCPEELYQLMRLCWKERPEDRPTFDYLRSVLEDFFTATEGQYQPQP
Chain of EGFRTK (P00533 25-1210): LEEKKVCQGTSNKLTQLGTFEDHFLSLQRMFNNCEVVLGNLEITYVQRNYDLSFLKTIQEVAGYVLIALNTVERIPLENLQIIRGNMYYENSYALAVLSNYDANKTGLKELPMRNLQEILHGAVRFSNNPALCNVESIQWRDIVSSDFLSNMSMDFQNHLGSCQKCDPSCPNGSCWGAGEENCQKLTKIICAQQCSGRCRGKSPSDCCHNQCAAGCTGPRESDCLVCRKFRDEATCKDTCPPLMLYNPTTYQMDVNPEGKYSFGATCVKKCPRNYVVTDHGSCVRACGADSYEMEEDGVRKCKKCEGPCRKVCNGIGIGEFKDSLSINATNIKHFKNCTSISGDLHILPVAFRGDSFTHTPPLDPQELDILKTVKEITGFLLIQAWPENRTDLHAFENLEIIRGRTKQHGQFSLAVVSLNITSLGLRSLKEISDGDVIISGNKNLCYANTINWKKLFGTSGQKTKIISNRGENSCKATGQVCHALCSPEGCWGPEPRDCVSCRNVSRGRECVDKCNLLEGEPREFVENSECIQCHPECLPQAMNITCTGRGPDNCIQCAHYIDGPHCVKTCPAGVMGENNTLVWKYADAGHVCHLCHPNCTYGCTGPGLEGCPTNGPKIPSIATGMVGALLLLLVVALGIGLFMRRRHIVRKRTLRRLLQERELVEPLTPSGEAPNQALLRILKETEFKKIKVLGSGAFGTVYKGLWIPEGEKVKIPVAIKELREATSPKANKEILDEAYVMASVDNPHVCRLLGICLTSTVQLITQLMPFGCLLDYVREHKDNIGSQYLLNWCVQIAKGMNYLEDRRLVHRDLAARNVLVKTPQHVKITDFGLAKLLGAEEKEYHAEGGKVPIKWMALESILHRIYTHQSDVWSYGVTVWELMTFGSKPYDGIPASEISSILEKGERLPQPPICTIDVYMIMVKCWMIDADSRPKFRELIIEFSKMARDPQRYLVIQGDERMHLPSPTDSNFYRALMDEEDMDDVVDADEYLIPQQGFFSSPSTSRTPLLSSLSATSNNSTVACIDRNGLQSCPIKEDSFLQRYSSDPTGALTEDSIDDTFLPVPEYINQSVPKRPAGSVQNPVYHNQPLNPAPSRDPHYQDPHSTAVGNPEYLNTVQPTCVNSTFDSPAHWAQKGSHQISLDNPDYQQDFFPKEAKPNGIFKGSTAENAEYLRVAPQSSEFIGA
Chain of Fyn (P06241 whole entry): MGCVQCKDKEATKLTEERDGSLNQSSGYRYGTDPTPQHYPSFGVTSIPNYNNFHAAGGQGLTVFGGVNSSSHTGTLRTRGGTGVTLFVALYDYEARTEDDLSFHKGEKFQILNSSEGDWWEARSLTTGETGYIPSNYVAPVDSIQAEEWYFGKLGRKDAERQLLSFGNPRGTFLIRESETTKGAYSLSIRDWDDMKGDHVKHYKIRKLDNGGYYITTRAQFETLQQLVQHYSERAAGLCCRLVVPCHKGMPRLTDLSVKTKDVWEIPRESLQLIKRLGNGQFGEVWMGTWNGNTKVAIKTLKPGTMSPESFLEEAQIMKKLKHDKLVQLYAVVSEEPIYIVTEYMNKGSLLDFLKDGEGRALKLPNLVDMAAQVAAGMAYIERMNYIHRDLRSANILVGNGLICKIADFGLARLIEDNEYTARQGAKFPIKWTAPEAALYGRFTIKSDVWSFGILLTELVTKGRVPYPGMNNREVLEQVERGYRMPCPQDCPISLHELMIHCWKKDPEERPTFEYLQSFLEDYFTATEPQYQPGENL
Chain of Yes (P07947 whole entry): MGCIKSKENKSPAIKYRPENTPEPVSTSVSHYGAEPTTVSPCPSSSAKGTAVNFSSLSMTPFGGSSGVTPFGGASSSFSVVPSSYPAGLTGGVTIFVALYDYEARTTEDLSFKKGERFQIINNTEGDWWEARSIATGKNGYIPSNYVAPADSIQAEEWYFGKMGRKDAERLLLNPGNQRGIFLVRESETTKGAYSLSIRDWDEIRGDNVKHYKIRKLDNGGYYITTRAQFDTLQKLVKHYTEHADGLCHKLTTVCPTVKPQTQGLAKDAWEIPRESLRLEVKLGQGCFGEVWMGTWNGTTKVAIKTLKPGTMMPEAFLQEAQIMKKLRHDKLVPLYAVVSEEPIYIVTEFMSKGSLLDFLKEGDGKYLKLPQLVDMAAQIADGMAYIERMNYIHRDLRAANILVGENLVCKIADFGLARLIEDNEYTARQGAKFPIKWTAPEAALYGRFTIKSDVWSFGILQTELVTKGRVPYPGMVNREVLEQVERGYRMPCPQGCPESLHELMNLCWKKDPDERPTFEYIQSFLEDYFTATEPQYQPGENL
Chain of Abl (P00519 whole entry): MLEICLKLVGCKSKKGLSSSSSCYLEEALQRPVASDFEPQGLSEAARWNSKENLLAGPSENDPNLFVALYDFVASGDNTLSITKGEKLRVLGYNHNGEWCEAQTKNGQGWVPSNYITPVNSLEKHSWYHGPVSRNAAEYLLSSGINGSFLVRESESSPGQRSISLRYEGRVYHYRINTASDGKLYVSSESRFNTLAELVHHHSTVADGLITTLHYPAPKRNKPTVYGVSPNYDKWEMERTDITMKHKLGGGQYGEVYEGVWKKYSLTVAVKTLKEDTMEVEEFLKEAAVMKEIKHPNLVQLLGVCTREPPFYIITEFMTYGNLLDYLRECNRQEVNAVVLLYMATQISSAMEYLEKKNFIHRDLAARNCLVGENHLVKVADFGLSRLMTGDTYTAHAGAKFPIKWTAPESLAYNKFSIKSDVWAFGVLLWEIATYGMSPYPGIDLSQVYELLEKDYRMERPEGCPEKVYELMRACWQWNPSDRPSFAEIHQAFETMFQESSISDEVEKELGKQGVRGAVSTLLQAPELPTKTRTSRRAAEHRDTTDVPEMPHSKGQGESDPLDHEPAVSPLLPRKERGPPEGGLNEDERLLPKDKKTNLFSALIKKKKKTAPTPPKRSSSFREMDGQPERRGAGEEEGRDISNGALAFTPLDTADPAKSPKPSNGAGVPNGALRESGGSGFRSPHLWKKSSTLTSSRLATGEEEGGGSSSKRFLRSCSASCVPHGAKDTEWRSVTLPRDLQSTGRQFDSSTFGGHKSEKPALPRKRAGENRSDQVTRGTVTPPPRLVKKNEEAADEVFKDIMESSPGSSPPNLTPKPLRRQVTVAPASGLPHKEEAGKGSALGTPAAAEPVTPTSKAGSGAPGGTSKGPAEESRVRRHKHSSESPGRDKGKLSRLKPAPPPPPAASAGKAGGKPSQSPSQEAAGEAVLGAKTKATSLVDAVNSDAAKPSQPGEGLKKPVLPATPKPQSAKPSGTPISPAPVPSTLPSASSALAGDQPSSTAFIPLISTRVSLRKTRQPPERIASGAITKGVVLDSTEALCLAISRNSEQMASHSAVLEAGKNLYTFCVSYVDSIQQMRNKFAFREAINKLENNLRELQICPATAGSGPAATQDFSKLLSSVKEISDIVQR
Chain of ZAP-70(h) (P43403 whole entry): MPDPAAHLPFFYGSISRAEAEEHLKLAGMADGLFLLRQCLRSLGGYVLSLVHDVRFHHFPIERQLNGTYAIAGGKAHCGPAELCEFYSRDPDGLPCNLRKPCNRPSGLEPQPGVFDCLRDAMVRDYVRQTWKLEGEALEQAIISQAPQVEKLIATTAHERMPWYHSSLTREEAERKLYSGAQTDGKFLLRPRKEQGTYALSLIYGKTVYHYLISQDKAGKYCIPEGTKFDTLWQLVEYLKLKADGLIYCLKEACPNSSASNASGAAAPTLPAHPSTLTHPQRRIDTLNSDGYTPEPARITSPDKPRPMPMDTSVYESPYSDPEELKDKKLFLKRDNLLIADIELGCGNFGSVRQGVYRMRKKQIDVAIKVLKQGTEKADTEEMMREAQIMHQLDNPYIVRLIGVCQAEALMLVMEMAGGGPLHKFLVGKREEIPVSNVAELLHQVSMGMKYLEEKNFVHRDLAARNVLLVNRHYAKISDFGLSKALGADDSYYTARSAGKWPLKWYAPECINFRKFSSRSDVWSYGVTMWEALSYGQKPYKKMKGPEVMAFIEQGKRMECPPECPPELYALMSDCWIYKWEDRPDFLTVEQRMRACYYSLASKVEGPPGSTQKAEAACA

Structure (SMILES): O=C(Cc1ccc(-c2ccc(OCCN3CCOCC3)cc2)cn1)NCc1ccccc1 [KX2-391]
- percent activity of isolated kinase relative to control, ZAP-70(h) (ZAP-70(h)): 108%
- percent activity of isolated kinase relative to control, PDGFRβ(h) [1]: 110%
- Src-Y416 autophosphorylation (Src-Y416): expected dose response
- percent activity of isolated kinase relative to control, IGF-1R(h) (IGF-1R(h)): 101%
- inhibition of isolated Abl (Abl): poor inhibition
- percent activity of isolated kinase relative to control, Ab1(h) (Abl; @ 10 μM): 120%
- inhibition of isolated Lck (Lck): poor inhibition
- percent activity of isolated kinase relative to control, Lck(h) (Lck; @ 10 μM): 109%
- percent activity of isolated kinase relative to control, CHK1(h) (CHK1(h)): 105%
- phosphorylation of Paxillin Y-31 (Paxillin Y-31): inhibited Src trans-phosphorylation
- inhibition of isolated EGFRTK (EGFRTK): poor inhibition
- percent activity of isolated kinase relative to control, EGFR(h) (EGFRTK; @ 10 μM): 134%
- phosphorylation of Shc Y239/240 (Shc Y239/240): inhibited Src trans-phosphorylation
- percent activity of isolated kinase relative to control, IR(h) (IR(h)): 112%
- activity against isolated kinases (isolated kinases): weak activity against isolated kinases
- percent activity of isolated kinase relative to control, PI3 kinase (PI3 kinase): 100%
- GI50 [2]: 13 nM
- inhibition of isolated Lyn (Lyn): poor inhibition
- percent activity of isolated kinase relative to control, Lyn(h) (Lyn; @ 10 μM): 113%
- FAK autophosphorylation (Y397) (FAK Y397): no inhibition of FAK autophosphorylation
- pIC50 (Src): 4.34
- induction of apoptosis (Caspase-3 cleavage) (Caspase-3): very effective in inducing apoptosis
- total phosphotyrosine levels (total phosphotyrosine): reduction in the total phosphotyrosine levels
- percent activity of isolated kinase relative to control, Pyk2(h) (Pyk2(h)): 97%
- PDGF receptor autophosphorylation [3]: Some effect is seen
- percent activity of isolated kinase relative to control, FGFR2(h) (FGFR2(h)): 94%
- percent activity of isolated kinase relative to control, PKCα(h) (PKCα(h)): 111%
- EGFR tyrosine kinase autophosphorylation (EGFR tyrosine kinase): less active
- phosphorylation of FAK Tyr 925 (FAK Tyr 925): inhibited Src trans-phosphorylation
- GI50 [4]: 23 nM
- inhibition of isolated Fyn (Fyn): poor inhibition
- percent activity of isolated kinase relative to control, Fyn(h) (Fyn; @ 10 μM): 85%
- percent activity of isolated kinase relative to control, MAPK2(h) (MAPK2(h)): 112%
- inhibition of isolated Yes (Yes): poor inhibition
- percent activity of isolated kinase relative to control, Yes(h) (Yes; @ 10 μM): 92%
